Measured values from US7939546B2, “Quinoline derivatives for modulating DNA methylation” (SuperGen, Inc., priority 2007, dated 2011).
Several values for one entry are separate records, joined by “and”; a condition that tells them apart may be missing. Identical values can stand only once. Counter-ions that a name gives are not always drawn.

How the values were obtained:
[1] = target: DNMT1 (Homo sapiens, UniProt P26358); assay: Selective depletion of DNMT1 by Western blot in treated HCT116 cells; format: cell-based; set-up: Protein extracts (equivalent to 100 μg) were isolated from HCT116 cells; endogenous in cells; host or cells: HCT116; settings: for % DNMT1 protein level remaining at 5 µM: HCT-116, 5 μM; for % DNMT1 protein level remaining at 10 µM: HCT-116, 10 μM; for % DNMT1 protein level remaining at 100 µM: HCT-116, 100 μM
Sequence of DNMT1 (P26358 whole entry): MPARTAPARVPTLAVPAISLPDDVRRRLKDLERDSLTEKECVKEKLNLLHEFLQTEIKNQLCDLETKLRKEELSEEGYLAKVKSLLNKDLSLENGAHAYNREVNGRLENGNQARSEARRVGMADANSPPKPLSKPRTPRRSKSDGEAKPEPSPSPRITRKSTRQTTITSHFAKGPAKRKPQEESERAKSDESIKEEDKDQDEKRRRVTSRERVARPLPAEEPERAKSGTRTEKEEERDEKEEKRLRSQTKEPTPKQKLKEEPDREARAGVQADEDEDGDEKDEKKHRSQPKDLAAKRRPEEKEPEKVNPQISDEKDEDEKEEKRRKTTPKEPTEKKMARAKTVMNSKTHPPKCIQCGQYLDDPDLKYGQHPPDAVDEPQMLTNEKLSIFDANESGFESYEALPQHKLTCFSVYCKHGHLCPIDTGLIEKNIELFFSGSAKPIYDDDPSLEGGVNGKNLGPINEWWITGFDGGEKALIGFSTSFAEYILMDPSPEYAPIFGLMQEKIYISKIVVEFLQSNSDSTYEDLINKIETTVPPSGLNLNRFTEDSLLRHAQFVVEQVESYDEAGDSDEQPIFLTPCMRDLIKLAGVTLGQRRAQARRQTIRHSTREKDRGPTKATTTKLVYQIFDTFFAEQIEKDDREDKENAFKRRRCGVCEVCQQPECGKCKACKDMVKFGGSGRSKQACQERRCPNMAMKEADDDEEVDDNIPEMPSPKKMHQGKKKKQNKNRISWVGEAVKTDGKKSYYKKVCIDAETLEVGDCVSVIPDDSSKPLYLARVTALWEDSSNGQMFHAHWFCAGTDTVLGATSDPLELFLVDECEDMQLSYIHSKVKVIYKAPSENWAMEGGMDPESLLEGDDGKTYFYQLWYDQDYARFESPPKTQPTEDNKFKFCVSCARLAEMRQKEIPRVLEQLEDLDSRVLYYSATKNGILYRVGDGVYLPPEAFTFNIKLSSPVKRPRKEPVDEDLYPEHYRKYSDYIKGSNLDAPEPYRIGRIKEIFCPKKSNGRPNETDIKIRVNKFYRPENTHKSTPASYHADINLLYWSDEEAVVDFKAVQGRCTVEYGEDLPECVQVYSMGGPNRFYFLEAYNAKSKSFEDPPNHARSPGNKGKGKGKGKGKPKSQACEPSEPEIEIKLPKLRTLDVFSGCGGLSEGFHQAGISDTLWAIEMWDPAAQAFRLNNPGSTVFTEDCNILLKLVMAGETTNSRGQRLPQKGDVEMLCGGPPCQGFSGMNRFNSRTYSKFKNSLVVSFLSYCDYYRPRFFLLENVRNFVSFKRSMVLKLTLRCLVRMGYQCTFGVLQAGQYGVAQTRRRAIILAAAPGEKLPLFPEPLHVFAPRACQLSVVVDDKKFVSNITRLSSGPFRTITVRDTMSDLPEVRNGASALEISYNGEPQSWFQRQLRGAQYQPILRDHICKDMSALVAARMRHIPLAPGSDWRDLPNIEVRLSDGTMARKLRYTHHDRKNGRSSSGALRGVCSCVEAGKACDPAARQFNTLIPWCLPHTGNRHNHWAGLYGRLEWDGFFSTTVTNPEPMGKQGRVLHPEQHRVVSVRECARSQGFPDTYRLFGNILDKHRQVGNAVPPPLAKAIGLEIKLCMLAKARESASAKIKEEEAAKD
Text: Biol. 2005, 11, 4727-41.]. For DNMT1, commercially available antibodies from Santa Cruz or New England Biolabs were used.

[2] = system: CMV-EE210 cell line; assay: Toxicity (TD50, cell viability) reported with the GFP assay; settings: Dose at which cells are >50% viable
Protocol: The demethylating activity of non-bis-quaternary 4-anilinoquinolines were tested in a cell-based GFP (green fluorescent protein) assay. This assay has a GFP gene regulated by the CMV promoter and is sensitive to the methylation of CpG sites within the promoter. A decrease in methylation resulting from exposure to a methylation inhibitor leads to GFP expression and is readily scored. Specifically, the CMV-EE210 cell line containing the epigenetically silenced GFP transgene was used to assay for reactivation of GFP expression by flow cytometry. CMV-EE210 was made by transfecting NIH 3T3 cells with the pTR-UF/UF1/UF2 plasmid (Zolotuhin et al., 1996), which is comprised of pBS(+) (Stratagene, Inc.) containing a cytomegalovirus (CMV) promoter driving a humanized GFP gene adapted for expression in mammalian cells. After transfection, high-level GFP expressing cells were initially selected by FACS analysis and sorting using a MoFlo cytometer (Cytomation, Inc.). […] To screen for reactivation of CMV-EE210, decitabine (at […]) or a test compound (at a concentration of 30-50 μM) was added to complete medium (phenol red free DMEM (Gibco, Life Technologies) supplemented with 10% fetal bovine serum (Hyclone)). Cells were then seeded to 30% confluence (˜5000 cell/well) in 96 well plate containing the test compounds and grown for three days in at 37° C. in 5% CO2. The plates were examined under a fluorescent microscope using a 450-490 excitation filter (13 filter cube, Leica, Deerfield Ill.). Wells were scored g1 positive if 10% of viable cells express GFP, g2 positive if 30% of viable cells express GFP and g3 if greater than 75% of the viable cells express GFP. GFP IC 50 is the concentration of an inhibitor that (like an IC50) is the dose at which the GFP expression level goes from g3 to g1/2.

SMILES | % DNMT1 protein level remaining at 5 µM [1] | % DNMT1 protein level remaining at 10 µM [1] | melting point | other results
C[n+]1ccc(Nc2cccc(NC(=O)c3ccc(Nc4ccnc5ccc([N+](=O)[O-])cc45)cc3)c2)cc1 [Cpd. F, 1-methyl-4-(3-{[4-(6-nitro-4-quinolinylamino)benzoyl]amino}anilino)pyridinium chloride] | 145% | 210% |  | % DNMT1 protein level remaining at 100 µM [1]: 155%; TD50 [2]: 25 µM
C[n+]1ccc(Nc2cccc(NC(=O)c3ccc(Nc4ccnc5cc([N+](=O)[O-])ccc45)cc3)c2)cc1 [Cpd. R, 1-methyl-4-[3-({4-[(7-nitro-4-quinolinyl)amino]benzoyl}amino)anilino]pyridinium chloride] | 160% | 170% |  | % DNMT1 protein level remaining at 100 µM [1]: 165%; TD50 [2]: 25 µM
Cc1cc(Nc2ccc(C(=O)Nc3ccc(Nc4ccnc5ccc([N+](=O)[O-])cc45)cc3)cc2)nc(N)n1 (as salt: hydrochloride) [Cpd. GG4, 4-[(2-Amino-6-methyl-4-pyrimidinyl)amino]-N-{4-[(6-nitro-4-quinolinyl)amino]phenyl}benzamide dihydrochloride] |  |  | 295 to 300 °C | 
CN(C)c1ccc2nccc(Nc3ccc(NC(=O)c4cccc(Nc5cc[n+](C)cc5)c4)cc3)c2c1 [Cpd. OO1, 6-(dimethylamino)-4-[4-({3-[(1-methyl-4-pyridiniumyl)amino]benzoyl}amino)anilino]-quinolinium dichloride] | 25% | 15% | 170 to 173 °C | 
Cc1cc(Nc2ccc(C(=O)Nc3ccc(Nc4ccnc5cc(N)ccc45)cc3)cc2)nc(N)n1 (as salt: hydrochloride) [Cpd. GG2, 4-[(2-Amino-6-methyl-4-pyrimidinyl)amino]-N-{4-[(7-amino-4-quinolinyl)amino]phenyl}benzamide dihydrochloride] |  |  | 257 to 262 °C and 257 to 261 °C | 
CN(C)c1ccc2nccc(Nc3ccc(NC(=O)c4ccc(Nc5cc[n+](C)cc5)cc4)cc3)c2c1 [Cpd. OO2, 6-(Dimethylamino)-4-[4-({4-[(1-methyl-4-pyridiniumyl)amino]benzoyl}amino)-anilino]quinolinium dichloride] | 50% | 95% | 156 °C (dec.) | 
C[n+]1ccc(Nc2ccc(NC(=O)c3ccc(Nc4ccnc5cc(N)ccc45)cc3)cc2)cc1 [Cpd. W, 1-methyl-4-[4-(4-{7-aminoquinolin-4-ylamino}benzamido)-phenylamino]pyridinium dichloride] | 45% | 75% | 242 to 245 °C | 
Cc1cc(Nc2cccc(C(=O)Nc3ccc(Nc4ccnc5ccc([N+](=O)[O-])cc45)cc3)c2)nc(N)n1 (as salt: hydrochloride) [RR2, 3-[(2-amino-6-methyl-4-pyrimidinyl)amino]-N-{4-[(6-nitro-4-quinolinyl)amino]phenyl}benzamide dihydrochloride] |  |  | > 300 °C | 
Cc1cc(Nc2ccc(C(=O)Nc3ccc(Nc4ccnc5ccc(N)cc45)cc3)cc2)nc(N)n1 (as salt: hydrochloride) [Cpd. GG3, 4-[(2-amino-6-methyl-4-pyrimidinyl)amino]-N-{4-[(6-amino-4-quinolinyl)amino]phenyl}benzamide dihydrochloride] |  |  | > 300 °C | 
Cc1cc(Nc2ccc(NC(=O)c3ccc(Nc4ccnc5c(F)c(F)c(F)cc45)cc3)cc2)nc(N)n1 (as salt: hydrochloride) [Cpd. KK, n-[4-(2-amino-6-methylpyrimidin-4-ylamino)phenyl]-4-(6,7,8-trifluoroquinolin-4-ylamino)benzamide dihydrochloride] |  |  | > 280 °C | 
Cc1cc(Nc2ccc(C(=O)Nc3ccc(Nc4ccnc5ccc(N(C)C)cc45)cc3)cc2)nc(N)n1 (as salt: hydrochloride) [Cpd. HH, 4-[(2-amino-6-methyl-4-pyrimidinyl)amino]-N-(4-{[6-(dimethylamino)-4-quinolinyl]amino}phenyl)benzamide dihydrochloride] |  |  | > 300 °C | 
Cc1cc(Nc2ccc(NC(=O)c3ccc(Nc4ccnc5ccc(Cl)cc45)cc3)cc2)nc(N)n1 [Cpd. LL, N-[4-(2-amino-6-methylpyrimidin-4-ylamino)phenyl]-4-(6-chloroquinolin-4-ylamino)benzamide] | 70% | 15% | 250 to 254 °C | 
C[n+]1ccc(Nc2cccc(NC(=O)c3ccc(Nc4ccnc5cc([N+](=O)[O-])ccc45)cc3)c2)cc1 (as salt: chloride) [Cpd. R, 1-methyl-4-[3-({4-[(7-nitro-4-quinolinyl)amino]benzoyl}amino)anilino]pyridinium chloride] |  |  | 303 °C (dec.) | 
Nc1cc(Nc2cccc(C(=O)Nc3ccc(Nc4ccnc5ccccc45)cc3)c2)nc(N)n1 (as salt: hydrochloride) [Cpd. FF2, 3-[(2,6-Diamino-4-pyrimidinyl)amino]-N-[4-(4-quinolinylamino)-phenyl]benzamide dihydrochloride] |  |  | > 300 °C | 
C[n+]1ccc(Nc2cccc(NC(=O)c3ccc(Nc4ccnc5ccccc45)cc3)c2)cc1 [Cpd. A, 1-methyl-4-(3-{[4-(4-quinolinylamino)benzoyl]amino}anilino)pyridinium chloride] | 99% | 117% |  | % DNMT1 protein level remaining at 100 µM [1]: 119%; TD50 [2]: 12.5 µM
C[n+]1ccc(Nc2ccc(C(=O)Nc3ccc(Nc4ccnc5cc([N+](=O)[O-])ccc45)cc3)cc2)cc1.Cl.[Cl-] [Cpd. U, 4-[4-({4-[(1-methyl-4-pyridiniumyl)amino]benzoyl}amino)anilino]-7-nitroquinolinium dichloride] |  |  |  | % DNMT1 Level ([1]; 5 μM): 97%; % DNMT1 Level ([1]; 10 μM): 53%; % DNMT1 Level ([1]; 100 μM): 32%; TD50 [2]: 25 µM
C[n+]1ccc(Nc2cccc(NC(=O)c3ccc(Nc4ccnc5ccc([N+](=O)[O-])cc45)cc3)c2)cc1 (as salt: chloride) [Cpd. F, 1-methyl-4-(3-{[4-(6-nitro-4-quinolinylamino)benzoyl]amino}anilino)pyridinium chloride] |  |  | 273 to 277 °C | 
C[n+]1ccc(Nc2cccc(NC(=O)c3ccc(Nc4ccnc5ccccc45)cc3)c2)cc1 (as salt: chloride) [Cpd. A, 1-methyl-4-(3-{[4-(4-quinolinylamino)benzoyl]amino}anilino)pyridinium chloride] |  |  | 253 to 257 °C | 
Cc1cc(Nc2ccc(NC(=O)c3ccc(Nc4ccnc5ccc([N+](=O)[O-])cc45)cc3)cc2)nc(N)n1 (as salt: hydrochloride) [Cpd. H, N-(4-(2-amino-6-methylpyrimidin-4-ylamino)phenyl)-4-(6-nitroquinolin-4-ylamino)benzamide hydrochloride] |  |  | 301 to 305 °C | 
C[n+]1ccc(Nc2ccc(NC(=O)c3ccc(Nc4ccnc5ccc([N+](=O)[O-])cc45)cc3)cc2)cc1 (as salt: hydrochloride) [Cpd. G, 1-methyl-4-(4-(4-(6-nitroquinolin-4-ylamino)benzamido)phenylamino)pyridinium chloride hydrochloride] |  |  | 183 to 187 °C | 
Cc1cc(Nc2ccc(NC(=O)c3ccc(Nc4ccnc5ccc([N+](=O)[O-])cc45)cc3)cc2)nc(N)n1 [Cpd. H, N-(4-(2-amino-6-methylpyrimidin-4-ylamino)phenyl)-4-(6-nitroquinolin-4-ylamino)benzamide hydrochloride] | 132% | 25% |  | % DNMT1 protein level remaining at 100 µM [1]: 24%; TD50 [2]: 12.5 µM
Cc1cc(Nc2cccc(C(=O)Nc3ccc(Nc4ccnc5ccc(N)cc45)cc3)c2)nc(N)n1 (as salt: hydrochloride) [RR3, 3-[(2-Amino-6-methyl-4-pyrimidinyl)amino]-N-{4-[(6-amino-4-quinolinyl)amino]phenyl}benzamide dihydrochloride] |  |  | 280 to 284 °C | 
C/C(=N\N=C(N)N)c1ccc(C(=O)Nc2ccc(Nc3ccnc4ccc(N(C)C)cc34)cc2)cc1 (as salt: hydrochloride) [Cpd. PP, 4-[(1E)-N-(diaminomethylene)ethanehydrazonoyl]-N-(4-{[6-(dimethylamino)-4-quinolinyl]amino}phenyl)benzamide dihydrochloride] |  |  | > 300 °C | 
